Patent publication US20010018060A1, “Use of particular fatty substances which make it possible to modify the physicochemical properties of the skin and/or the mucous membranes as agents preventing or reducing the adhesion of microorganisms to the latter” (priority 2000, published 2001)

What was measured:
[1] = test system: Staphylococcus aureus adhering to reconstructed epidermis; assay type: cell-based; conditions: for Reduction of log/control: reduction of decimal logarithm of mean number of viable Staphylococcus aureus adhering to reconstructed epidermis (EPISKIN) vs water, 25 mg fatty substance, 2 hours at 37° C., then 24 hours with bacteria
Description: Moreover, these fatty substances are such that the decimal logarithm of the mean number of viable bacteria adhering to reconstructed epidermis, after a test consisting in bringing the said epidermis into contact with the test compound for 2 hours at 37° C., is at least 0.3, preferably 0.5 and more preferably 1, less than that obtained by a test carried out with water under the same conditions.
The reconstructed epidermis used in the test indicated above is reconstructed human epidermis, equivalent to human skin, sold by EPISKIN.
The antiadhesion test corresponds to the protocol below:
Before bacterial adhesion, the reconstructed epidermis is brought into contact for 2 hours with 25 mg of the fatty substance to be tested at 37° C. 1 ml of bacterial suspension of Staphylococcus aureus at a concentration of 10^7 microorganisms/ml in Tryptone salt is then added thereto. After incubating for 24 hours at 37° C., the bacterial suspension is emptied and five rinsings are carried out with 1 ml of sterile distilled water. The epidermis, detached from its support, is then ground with the aid of a food processor in 18 ml of Tryptone salt. A decimal dilution is carried out on this suspension in Tryptone salt, and 1 ml of the dilution is then inoculated into 15 ml of Trypticase Soy agar and the medium is incubated for 24 hours at 37° C. The adherent and viable cells are then counted.
This antiadhesion test makes it possible to evaluate the efficacy of molecules alone or of finished products.
(§1) The figures presented opposite the fatty substance correspond to the reduction of the decimal logarithm of the mean number of viable Staphylococcus aureus adhering to reconstructed epidermis after treatment with the fatty substance under the conditions defined by the preceding test compared with the decimal logarithm of the mean number of viable Staphylococcus aureus adhering to reconstructed epidermis after treatment with water under the same conditions.
as §1, with “value” for “reduction”

[2] = interfacial tension of the fatty substance; assay type: physicochemical

Compound | Reduction of log/control [1] | Interfacial tension [2] | Log measured ([1]; decimal logarithm of viable adhering Staphylococcus aureus compared with water control, the printed number is an increase /control, same test conditions)
CCCCCCCCOC(=O)CCCCC(=O)OCCCCCCCC [Dioctyl adipate] | 0.9 | – | –
CCCCCCCCCCCCCCCC(=O)OC(C)C [Isopropyl palmitate] | 1.07 | – | –
CCCCCCCCCCCCCCCCCCCCCC(=O)OCC(O)COCC(CC)CCCC (centres unmarked) [Octoxyglyceryl behenate] | 2.59 | – | –
CCCCCCCCCCCCCCCC(=O)OCC(O)COCC(CC)CCCC (centres unmarked) [Octoxyglyceryl palmitate] | 1.85 | – | –
CC(C)CCCC(C)CCCC(C)CCCCC(C)CCCC(C)CCCC(C)C (centres unmarked) [Squalane, reference compound] | – | 46 mN/m | 0.27/control
Di(C12-13 alkyl) malate | 3.68 | – | –
Tartrate of branched C12-C13 dialcohols | 2.31 | – | –
